{"source": "patent US8703785B2", "about": "“2-aminopyrimidin-4-one and 2-aminopyridine derivatives both having BACE1-inhibiting activity” (Shionogi & Co., Ltd., priority 2008, dated 2014)", "key": {"[1]": {"target": "Recombinant human BACE-1 (Homo sapiens (Human), UniProt P56817)", "sequence (P56817 46-501)": "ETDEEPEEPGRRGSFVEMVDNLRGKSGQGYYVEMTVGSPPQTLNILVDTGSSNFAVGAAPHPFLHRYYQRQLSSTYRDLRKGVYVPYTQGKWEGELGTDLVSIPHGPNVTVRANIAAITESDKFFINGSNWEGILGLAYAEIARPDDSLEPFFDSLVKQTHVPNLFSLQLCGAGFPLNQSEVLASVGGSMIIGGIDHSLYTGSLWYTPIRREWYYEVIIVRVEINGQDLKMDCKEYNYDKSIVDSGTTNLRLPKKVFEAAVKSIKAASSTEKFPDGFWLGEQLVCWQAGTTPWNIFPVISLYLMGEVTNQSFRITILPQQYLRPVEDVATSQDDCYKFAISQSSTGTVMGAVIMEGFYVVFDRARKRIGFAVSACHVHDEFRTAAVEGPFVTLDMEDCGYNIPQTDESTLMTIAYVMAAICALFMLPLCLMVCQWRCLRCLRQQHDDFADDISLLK", "assay": "Measurement of BACE1 inhibitory activity", "assay_type": "biochemical", "settings": "Recombinant human BACE-1 7.4 nM, substrate peptide 18 nM, pH 5.0, 3 hours at 30° C.; read-out: IC50 (BACE1 enzyme activity)", "method": "First, 48.5 μl portions of a solution of substrate peptide (Biotin-XSEVNLDAEFRHDSGC-Eu: X=ε-amino-n-capronic acid, Eu=Europium cryptate) were put into respective wells of a 96-well half area microplate (black microplate, Costar). Then, 0.5 μl of a test compound (DMSO (dimethyl sulfoxide) solution) and 1 μl of Recombinant human BACE-1 (R&D systems) were added to each of the wells, and they were reacted for 3 hours at 30° C. […] The final concentration of the substrate peptide was set to 18 nM, and the final concentration of Recombinant human BACE-1 was set to 7.4 nM. The reaction buffer used was a sodium acetate buffer (50 mM sodium acetate, pH 5.0, 0.008% Triton X-100). After the reaction finished, 50 μl portions of a 8.0 μg/ml solution of Streptavidin-XL665 (CIS bio international) in a phosphate buffer (150 mM K2HPO4—KH2PO4, pH 7.0, 0.008% Triton X-100, 0.8 M KF) were added to the respective wells, and the plate was left standing for 1 hour at 30° C. Thereafter, the fluorescence intensity (excitation wavelength: 320 nm, measurement wavelength: 620 nm and 665 nm) was measured with a Wallac 1420 multilabel counter (Perkin Elmer life sciences). The enzyme activity was determined from the count rate at each measurement wavelength (10000× Count 665/Count 620), and the amount needed to inhibit the enzyme activity by 50% (IC50) was calculated."}, "[2]": {"test_system": "Neuroblastoma SH-SY5Y cells (SH/APPwt) with human wild-type β-APP excessively expressed", "assay": "Measurement of β-amyloid (Aβ) production inhibitory effect in cell", "assay_type": "cell-based", "settings": "24 hours incubation, Amyloid-β 1-40 HTRF", "method": "Neuroblastoma SH-SY5Y cells (SH/APPwt) with human wild-type β-APP excessively expressed therein were prepared at 8×10^5 cells/mL, and 150 μl portions thereof were inoculated into respective wells of a 96-well culture plate (Falcon). The cells were cultured for 2 hours at 37° C. in a 5% gaseous carbon dioxide incubator. […] Namely, the final DMSO concentration was 1%, and the amount of the cell culture was 200 μl. After the incubation was performed for 24 hours from the addition of the test compound, 100 μl of the culture supernatant was collected from each fraction. The amount of the Aβ in each fraction was measured. The Aβ amount was measured as follows. 10 μl of a homogeneous time resolved fluorescence (HTRF) measurement reagent (Amyloid-β 1-40 peptide; IBA Molecular Holding, S.A.) and 10 μl of the culture supernatant were put into a 384-well half area microplate (black microplate, Costar) and mixed with each other, and then left standing overnight at 4° C. while the light was shielded. Then, the fluorescence intensity (excitation wavelength: 337 nm, measurement wavelength: 620 nm and 665 nm) was measured with a Wallac 1420 multilabel counter (Perkin Elmer life sciences)."}, "[3]": {"target": "CYP3A4 (Homo sapiens (Human), UniProt P08684)", "sequence (P08684 whole entry)": "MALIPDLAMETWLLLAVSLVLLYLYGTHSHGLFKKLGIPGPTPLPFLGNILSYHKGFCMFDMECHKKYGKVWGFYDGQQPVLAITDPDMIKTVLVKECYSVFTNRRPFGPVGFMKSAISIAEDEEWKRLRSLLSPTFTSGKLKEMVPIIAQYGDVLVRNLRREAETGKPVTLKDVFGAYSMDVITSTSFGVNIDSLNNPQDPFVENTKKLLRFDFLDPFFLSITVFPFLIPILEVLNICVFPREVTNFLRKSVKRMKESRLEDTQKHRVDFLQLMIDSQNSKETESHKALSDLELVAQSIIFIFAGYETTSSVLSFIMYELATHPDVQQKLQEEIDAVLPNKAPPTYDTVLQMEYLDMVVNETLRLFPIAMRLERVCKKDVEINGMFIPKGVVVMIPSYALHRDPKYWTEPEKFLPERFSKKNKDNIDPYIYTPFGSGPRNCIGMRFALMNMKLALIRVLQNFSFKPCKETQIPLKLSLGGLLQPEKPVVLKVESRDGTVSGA", "assay": "CYP3A4 fluorescent MBI test", "assay_type": "in vitro ADME", "settings": "E. coli-expressing CYP3A4, 7-BFC substrate, pre-reaction 0 or 30 minutes", "method": "The CYP3A4 fluorescent MBI test is a test to examine enhancement of CYP3A4 inhibition by metabolic reaction of the compound. Here, E. coli-expressing CYP3A4 was used as an enzyme, and a reaction wherein 7-benzyloxy trifluoromethylcumarin (7-BFC) was debenzylated by the CYP3A4 enzyme into a fluorescent metabolite 7-hydroxytrifluoromethylcumarin (HFC) was employed as an indicator reaction. The reaction conditions were as follows.\nSubstrate: 5.6 μmol/L 7-BFC\nPre-reaction time: 0 or 30 minutes\nReaction time: 15 minutes\nReaction temperature: 25° C. (room temperature)\nCYP3A4 content (E. coli-expressing enzyme): 62.5 pmol/mL at pre-reaction, […] at reaction (10-fold diluted) […]\nThe enzyme and a test compound solution were added to a K-Pi buffer (pH 7.4) in the aforementioned amounts for the pre-reaction so that a pre-reaction solution was prepared, and this solution was put into a 96-well microplate. […] With respect to each of the microplates on which the indicator reaction was performed, the fluorescence value of the metabolite 7-HFC was measured with a fluorescence plate reader (Ex=420 nm, Em=535 nm). […] The remaining activity (%) at each concentration after adding the test compound solution was calculated, and the IC50 value was calculated from the concentration and inhibition percentage by inverse estimation with the logistic model. […]"}, "[4]": {"target": "hERG (IKr) (Homo sapiens (Human), UniProt Q12809)", "sequence (Q12809 whole entry)": "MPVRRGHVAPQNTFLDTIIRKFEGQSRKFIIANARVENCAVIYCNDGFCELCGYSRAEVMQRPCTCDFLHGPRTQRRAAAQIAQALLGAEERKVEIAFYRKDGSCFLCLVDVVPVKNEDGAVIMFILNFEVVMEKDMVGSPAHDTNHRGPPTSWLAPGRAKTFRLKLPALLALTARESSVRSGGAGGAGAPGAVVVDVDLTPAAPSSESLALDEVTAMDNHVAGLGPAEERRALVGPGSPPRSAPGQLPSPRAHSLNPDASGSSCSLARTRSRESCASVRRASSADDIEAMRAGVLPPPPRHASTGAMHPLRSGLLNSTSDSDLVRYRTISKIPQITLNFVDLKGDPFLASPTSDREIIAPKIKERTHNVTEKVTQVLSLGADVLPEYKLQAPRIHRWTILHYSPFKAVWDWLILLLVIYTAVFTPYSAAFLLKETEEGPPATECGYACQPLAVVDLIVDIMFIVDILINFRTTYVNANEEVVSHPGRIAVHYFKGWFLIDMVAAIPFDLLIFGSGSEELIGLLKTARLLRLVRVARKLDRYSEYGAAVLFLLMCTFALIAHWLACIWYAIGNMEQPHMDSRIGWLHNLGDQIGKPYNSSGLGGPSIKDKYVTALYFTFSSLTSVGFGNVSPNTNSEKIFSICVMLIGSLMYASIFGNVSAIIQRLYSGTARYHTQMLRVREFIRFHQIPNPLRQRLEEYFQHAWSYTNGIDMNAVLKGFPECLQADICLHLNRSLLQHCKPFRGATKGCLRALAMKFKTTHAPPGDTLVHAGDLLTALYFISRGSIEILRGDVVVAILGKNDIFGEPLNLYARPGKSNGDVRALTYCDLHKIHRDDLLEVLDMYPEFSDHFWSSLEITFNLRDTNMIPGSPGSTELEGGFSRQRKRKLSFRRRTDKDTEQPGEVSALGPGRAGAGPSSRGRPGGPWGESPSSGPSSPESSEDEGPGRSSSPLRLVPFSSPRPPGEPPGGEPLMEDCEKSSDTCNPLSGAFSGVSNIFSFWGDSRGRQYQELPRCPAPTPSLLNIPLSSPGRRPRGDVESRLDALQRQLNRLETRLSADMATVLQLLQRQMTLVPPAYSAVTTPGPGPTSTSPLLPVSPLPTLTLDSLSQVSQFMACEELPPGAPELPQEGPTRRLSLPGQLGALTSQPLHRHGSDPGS", "assay": "hERG test", "assay_type": "cell-based", "settings": "HEK293 cells expressing hERG channel, pH 7.4, HEK293 cell expressing hERG, compound concentration 5 μM, read-out: inhibitory percentage (IKr maximum tail current)", "description": "For the purpose of risk assessment for QT prolongation on an electrocardiogram, the action on delayed rectifier K+ current (IKr) which plays an important role on a process of ventricular repolarization was studied using a HEK293 cell with a human ether-a-go-go related gene (hERG) channel expressed therein. A cell was maintained at a membrane potential of −80 mV, and then +40 mV of a depolarizing stimulus was applied to the cell for 2 seconds and further −50 mV of a repolarizing stimulus was applied thereto for 2 seconds by a whole-cell patch clamp technique with a fully-automatic patch clamp system (PatchXpress 7000A, Axon Instruments Inc.), and the induced IKr was recorded. […] The absolute value of the maximum tail current was determined from the obtained IKr with an analysis software (DataXpress ver. 1, Molecular Devices Corporation) based on a current value at a maintained membrane potential. Further, an inhibitory percentage relative to the maximum tail current before application of the test compound was calculated, and influence of the test compound on IKr was evaluated in comparison with the medium application group (0.1% dimethyl sulfoxide solution). […]"}}, "note": "pIC50: −log10 of the molar value."}
{"molecule": "COCCOc1cnc(C(=O)Nc2cccc(C3(C)CC(=O)N(C)C(N)=N3)c2)cn1", "note": "(stereo not shown) [Compound 40]", "values": [{"measurement": "pIC50", "setting": "[1]", "result": 7.85}, {"measurement": "pIC50", "setting": "[2]", "result": 9.05}, {"measurement": "IC50 difference without vs with pre-reaction", "setting": "[3]", "result": "≤ 3", "unit": "µM"}, {"measurement": "inhibition at 10 min, 5 µM", "setting": "[4]", "result": 4.1, "unit": "%"}]}
